# From the SangsterLogP compilation
# Assays:
# [1] = from Comini, L.; Núñez Montoya, S.; Argüello, G.; Cabrera, J. (2006). Partition coefficient (log P) determination of anthraquinone derivatives isolated from Heterophyllaea pustulata Hook, f. (Rubiaceae). …; conditions: pH 7.4
# [2] = not given; remark: listed apart in the source
# [3] = method code SF-AS, from DOI: 10.1081/jlc-100101656
# [4] = not given; remark: listed apart in the source
# [5] = method code SF-AS, from DOI: 10.3390/molecules16097565, PMID: 21894089
# [6] = method code SF-AS, from DOI: 10.1016/j.ejps.2014.12.009, PMID: 25513709; conditions: pH 7.4
# [7] = not given; remark: listed apart in the source
# [8] = method code SF-GLC, from DOI: 10.1584/jpestics.7.397
# [9] = pH 7.4
# [10] = method code SF, from DOI: 10.1021/acs.jmedchem.6b00554, PMID: 27500461; conditions: pH 7.4
# [11] = method code SF, from DOI: 10.1016/j.ecoenv.2008.09.011, PMID: 19560203
# [12] = method code SF-RC, from PMID: 3380859; conditions: pH 1.0
# [13] = not given; remark: listed apart in the source
# [14] = method code SF-AS, from DOI: 10.1248/cpb.42.1084, PMID: 8069960
# [15] = method code SF-RC, from DOI: 10.1021/jm701375u, PMID: 18307287; conditions: pH 7.4
# [16] = method code SF-AS, from PMID: 6540096; conditions: pH 7.5
# [17] = pH 7.5
# [18] = not given; remark: listed apart in the source
# [19] = method code SF-AS, from DOI: 10.1002/jps.2600701116, PMID: 7299671; conditions: pH 2.2
# [20] = method code SF-AS, from PMID: 12408720; conditions: pH 7.4
# [21] = not given; remark: listed apart in the source
# [22] = method code SF-HPLC, from DOI: 10.1016/j.ejmech.2009.03.025, PMID: 19386398; conditions: pH 7.4
# [23] = method code G, from Wang, L.; Li, H.; Wang, X.; Zhang, Z. (1993). Determination of aqueous solubilities and partition coefficients of substitutive ethylketone congeners by generator column. Huanjing Huaxue, 12(2)151-154.
# [24] = not given; remark: listed apart in the source
# [25] = method code SF-HPLC, from DOI: 10.1021/jm100498u, PMID: 20704351; conditions: pH 7.4
# [26] = not given; remark: listed apart in the source
# [27] = method code SF-AS, from Rainer, G.; Krüger, U.; Klemm, K. (1981). Synthesis and physico-chemical properties of lonazolac-Ca, a new antiphlogistic/antirheumatic agent. Arzneimittelforschung, 31(4)649-55.
# [28] = not given; remark: listed apart in the source
# [29] = not given; remark: listed apart in the source
# [30] = method code SF-RC, from DOI: 10.1016/j.nucmedbio.2008.11.010, PMID: 19217534; conditions: pH 7.4
# [31] = method code SF-RC, from DOI: 10.17863/cam.48378, PMID: 23133799; conditions: pH 7.4
# [32] = method code SF, from Li, Y.; Sun, S.; Zheng, Y. (2012). Determination of partition coefficients of icariside-II and icaritin based on the HPLC retention time. Chinese Pharmaceutical Journal, 47, 122-126.
# [33] = not given; remark: listed apart in the source
# [34] = not given; remark: listed apart in the source
# [35] = method code RP-HPLC, from DOI: 10.1016/0043-1354(79)90252-5; conditions: pH 7.0
# [36] = not given; remark: listed apart in the source
# [37] = method code SF-AS, from DOI: 10.1016/s0928-0987(01)00170-1, PMID: 11500262; conditions: pH 12.5
# [38] = method code SF-AS, from DOI: 10.1016/s0026-895x(25)10375-1
# [39] = method code SF-AS, from DOI: 10.1016/s0006-291x(75)80410-4, PMID: 1111518
# [40] = method code SF-AS, from DOI: 10.1021/jm9800301, PMID: 9748357; conditions: pH 7.4
# [41] = method code SF, from DOI: 10.1016/s0969-8051(99)00063-3, PMID: 10628565; conditions: pH 7.4
# [42] = method code SF-HPLC, from DOI: 10.1016/0378-5173(85)90221-2; conditions: pH 1.5
# [43] = method code SF-RC, from DOI: 10.1016/s0969-8051(03)00053-2; conditions: pH 7.4
# [44] = method code SF-HPLC, from DOI: 10.1016/0378-5173(90)90303-l; conditions: pH 7.4
# [45] = not given; remark: listed apart in the source
compound,measurement,setting,value
COc1c(CO)c(O)cc2c1C(=O)c1ccccc1C2=O,logD,[1],1.29
C[C@]12N[C@H](Cc3ccccc31)c1ccccc12,logP,,1.79
O=[N+]([O-])c1cc(Cl)c(/N=N/c2ccc(N(CCO)CCO)cc2Cl)c(Cl)c1,logP,[2],3.9
CCc1onc(C)c1NC1=CC(=O)C(=O)c2ccccc21,logP,[3],2.14
O=C(O)CCC(=O)c1ccc(-c2ccccc2)cc1,logP,[4],2.91
C[C@H](c1nc2ccc(F)cc2s1)N1C(=O)C(=O)N(c2ccccc2)C1=O,logP,[5],1.51
COC1=CC(=O)CC(C)C12Oc1c(Cl)c(OC)cc(OC)c1C2=O (stereo unspecified),logD,[6],2.33
N#Cc1ccc(CN2CCC(COC/C=C/I)CC2)cc1,logP,[7],3.24
CC(C)Oc1cccc(NC(=O)c2ccccc2C(F)(F)F)c1,logP,[8],3.7
O=C(Nc1ccnc(NC(=O)C2CC2)c1)c1c(Cl)cccc1Cl,logD,[9],3.4
Cc1sc(=NC(=O)C2C(C)(C)C2(C)C)n(CCCCF)c1C,logD,[10],3.22
CCOC(=O)C1=C[C@@H](OC(CC)CC)[C@H](NC(C)=O)[C@@H](N)C1,logP,[11],1.21
Cn1c(CCCC(=O)O)nc2cc(N(CCCl)CCCl)ccc21,logD,[12],0.44
Cc1ccc(CCNc2cc(-c3n[nH]c(N)n3)ccn2)cc1C,logP,[13],3.08
COc1ccc(Nc2ccnc3cc(Cl)ccc23)cc1,logP,[14],4.94
Brc1cccc(N2CCN(Cc3cnn4ccccc34)CC2)n1,logD,[15],1.98
CCc1cc2c(s1)N(C)C(=O)CN=C2c1ccccc1Cl,logD,[16],3.35
CCN1CCC[C@H]1CNC(=O)c1c(O)c(I)cc(OC)c1OC,logD,[17],2.5
CN(C)CCc1c[nH]c2ccc(CS(=O)(=O)N3CCCC3)cc12,logP,[18],1.6
C=C(CC(=O)c1ccc(-c2ccccc2Cl)cc1)C(=O)O,logD,[19],3.32
Cc1ccc(C(=O)Cn2c3c(sc2=N)CCCC3)cc1,logD,[20],1.49
CCCCC(CC)CP(=O)(O)CC(CC)CCCC (stereo unspecified),logP,[21],3.92
Cc1ccc(N=NC(C)C(=O)NCCc2ccc(O)cc2)cc1 (stereo unspecified),logD,[22],3.9
COc1ccc(C(=O)CSc2ccc(C)cc2)cc1,logP,[23],2.47
CC(CC(=O)O)(N=O)c1cc(Oc2ccc(C(F)(F)F)cc2Cl)ccc1[N+](=O)[O-] (stereo unspecified),logP,[24],4.3
CCOC(=O)c1cncn1C(C)c1ccc(C2(C(F)(F)F)N=N2)cc1 (stereo unspecified),logD,[25],4.4
CCCCCCCCCCOc1ccc(C(=O)O)cc1,logP,[26],5.77
O=C(O)Cc1cn(-c2ccccc2)nc1-c1ccc(Cl)cc1,logP,[27],4.13
c1cnc(N2CCN(Cc3ccc4c(c3)OCO4)CC2)nc1,logP,[28],2.84
N#Cc1ccc(OCC2CCN(C/C=C/I)CC2)cc1,logP,[29],3.36
N#Cc1ccc(C(c2ccc(C#N)cc2)n2cncn2)cc1,logD,[30],1.84
FCCOCCON=C1C=C(C#Cc2ccccn2)CCC1,logD,[31],1.9
COc1ccc(-c2coc3cc(O)ccc3c2=O)cc1,logP,[32],3.32
COc1cccc(N(C)C(=N)Nc2cc(SC)ccc2Cl)c1,logP,[33],2.34
CC(=O)Oc1c(C)cc(OCC(O)CNC(C)C)c(C)c1C (stereo unspecified),logP,[34],1.95
COc1ccc(C(c2ccc(OC)cc2)C(Cl)(Cl)Cl)cc1,logD,[35],3.82
COCCN1C=CC(=C2C(=O)c3ccc(Cl)cc3C2=O)C=C1,logP,[36],2.78
CN(C)CCCc1ccccc1-c1ccccc1,logD,[37],5.53
CCN1CCC[C@H]1CNC(=O)c1c(OC)ccc(Br)c1OC,logP,[38],2.1
C=CCN1CCN(C(=O)N=NC(=O)N2CCN(CC=C)CC2)CC1,logP,[39],0.79
O=C(NCc1ccc(O)cc1)C(=O)c1c[nH]c2ccc([N+](=O)[O-])cc12,logD,[40],2.67
CC(=O)OCC1C(OC(C)=O)C(OC(C)=O)C(OC(C)=O)CN1CCCI (stereo unspecified),logD,[41],1.76
CCCc1c2c(c(O)c3c(=O)cc(C(=O)O)oc13)CCCC2,logD,[42],4.4
CCCn1c(=O)c2[nH]c(C3CCCC3)nc2n(C/C=C/I)c1=O,logD,[43],2.96
CN(C)C(=O)COC(=O)c1cc(S(N)(=O)=O)c(Cl)cc1NCc1ccco1,logD,[44],1.18
CCCn1c(=O)c2[nH]c(-c3ccc(S(=O)(=O)O)cc3)nc2n(CCC)c1=O,logP,[45],-0.03
